# Reference: US20100267561A1, “HERBICIDAL PYRIDAZINONE DERIVATIVES” (priority 2007, published 2010)
# How the values were obtained:
# Assay in all cases: Test E pre-/postemergence plant response
# Type in all cases: in vivo
# [1] = test system: annual bluegrass (Poa annua); conditions: scale 0 to 100
# Procedure, shortened: (§1)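 In this greenhouse assay, sown seeds received preemergence treatment and young plants of 2 to 18 cm (1- to 4-leaf stage) received postemergence treatment, both with compound in a non-phytotoxic solvent and surfactant vehicle. Effects were rated visually 14 to 21 days later on a 0–100 control scale.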
# [2] = test system: barnyardgrass (Echinochloa crus-galli); conditions: scale 0 to 100
# Procedure, shortened: as §1
# [3] = test system: bermudagrass (Cynodon dactylon); conditions: scale 0 to 100
# Procedure, shortened: as §1
# [4] = test system: common mallow (Malva sylvestris); conditions: Postemergence, scale 0 to 100
# Procedure, shortened: as §1
# [5] = test system: goosegrass (Eleusine indica); conditions: scale 0 to 100
# Procedure, shortened: as §1
# [6] = test system: green foxtail (Setaria viridis); conditions: scale 0 to 100
# Procedure, shortened: as §1
# [7] = test system: guineagrass (Panicum maximum); conditions: scale 0 to 100
# Procedure, shortened: as §1
# [8] = test system: itchgrass (Rottboellia cochinchinensis); conditions: scale 0 to 100
# Procedure, shortened: as §1
# [9] = test system: johnsongrass (Sorghum halepense); conditions: scale 0 to 100
# Procedure, shortened: as §1
# [10] = test system: pitted morningglory (Ipomoea lacunosa); conditions: scale 0 to 100
# Procedure, shortened: as §1
# [11] = test system: purple nutsedge (Cyperus rotundus); conditions: scale 0 to 100
# Procedure, shortened: as §1
# [12] = test system: surinam grass (Brachiaria decumbens); conditions: scale 0 to 100
# Procedure, shortened: as §1
compound,measurement,setting,value
CCc1cc(-c2ccc(Cl)cc2)nn1-c1c(OC(=O)C(C)(C)C)cnn(C)c1=O [Compound 40],"Plant response rating, Bluegrass","[1]; 8 g ai/ha, Preemergence",60
same,"Plant response rating, Bluegrass","[1]; 16 g ai/ha, Preemergence",90
same,"Plant response rating, Bluegrass","[1]; 62 g ai/ha, Preemergence",95
same,"Plant response rating, Bluegrass","[1]; Postemergence, 8 g ai/ha",0
same,"Plant response rating, Bluegrass","[1]; Postemergence, 16 g ai/ha",0
same,"Plant response rating, Bluegrass","[1]; Postemergence, 31 g ai/ha",15
same,"Plant response rating, Bluegrass","[1]; Postemergence, 62 g ai/ha",15
same,"Plant response rating, Barnyardgrass","[2]; 8 g ai/ha, Preemergence",75
same,"Plant response rating, Barnyardgrass","[2]; 16 g ai/ha, Preemergence",95
same,"Plant response rating, Barnyardgrass","[2]; 31 g ai/ha, Preemergence",100
same,"Plant response rating, Barnyardgrass","[2]; 62 g ai/ha, Preemergence",100
same,"Plant response rating, Barnyardgrass","[2]; Postemergence, 8 g ai/ha",100
same,"Plant response rating, Barnyardgrass","[2]; Postemergence, 16 g ai/ha",100
same,"Plant response rating, Barnyardgrass","[2]; Postemergence, 31 g ai/ha",100
same,"Plant response rating, Barnyardgrass","[2]; Postemergence, 62 g ai/ha",100
same,"Plant response rating, Bermudagrass","[3]; 8 g ai/ha, Preemergence",40
same,"Plant response rating, Bermudagrass","[3]; 16 g ai/ha, Preemergence",80
same,"Plant response rating, Bermudagrass","[3]; 31 g ai/ha, Preemergence",98
same,"Plant response rating, Bermudagrass","[3]; 62 g ai/ha, Preemergence",100
same,"Plant response rating, Bermudagrass","[3]; Postemergence, 8 g ai/ha",30
same,"Plant response rating, Bermudagrass","[3]; Postemergence, 16 g ai/ha",50
same,"Plant response rating, Bermudagrass","[3]; Postemergence, 31 g ai/ha",60
same,"Plant response rating, Bermudagrass","[3]; Postemergence, 62 g ai/ha",70
same,"Plant response rating, Mallow",[4]; 8 g ai/ha,0
same,"Plant response rating, Mallow",[4]; 16 g ai/ha,0
same,"Plant response rating, Mallow",[4]; 31 g ai/ha,0
same,"Plant response rating, Mallow",[4]; 62 g ai/ha,0
same,"Plant response rating, Goosegrass","[5]; 8 g ai/ha, Preemergence",75
same,"Plant response rating, Goosegrass","[5]; 16 g ai/ha, Preemergence",98
same,"Plant response rating, Goosegrass","[5]; 31 g ai/ha, Preemergence",100
same,"Plant response rating, Goosegrass","[5]; 62 g ai/ha, Preemergence",100
same,"Plant response rating, Goosegrass","[5]; Postemergence, 8 g ai/ha",65
same,"Plant response rating, Goosegrass","[5]; Postemergence, 16 g ai/ha",65
same,"Plant response rating, Goosegrass","[5]; Postemergence, 31 g ai/ha",80
same,"Plant response rating, Goosegrass","[5]; Postemergence, 62 g ai/ha",95
same,"Plant response rating, Foxtail, Green","[6]; 8 g ai/ha, Preemergence",40
same,"Plant response rating, Foxtail, Green","[6]; 16 g ai/ha, Preemergence",75
same,"Plant response rating, Foxtail, Green","[6]; 31 g ai/ha, Preemergence",98
same,"Plant response rating, Foxtail, Green","[6]; 62 g ai/ha, Preemergence",100
same,"Plant response rating, Foxtail, Green","[6]; Postemergence, 8 g ai/ha",70
same,"Plant response rating, Foxtail, Green","[6]; Postemergence, 16 g ai/ha",80
same,"Plant response rating, Foxtail, Green","[6]; Postemergence, 31 g ai/ha",95
same,"Plant response rating, Foxtail, Green","[6]; Postemergence, 62 g ai/ha",98
same,"Plant response rating, Guineagrass","[7]; 16 g ai/ha, Preemergence",100
same,"Plant response rating, Guineagrass","[7]; 31 g ai/ha, Preemergence",100
same,"Plant response rating, Guineagrass","[7]; 62 g ai/ha, Preemergence",100
same,"Plant response rating, Guineagrass","[7]; Postemergence, 8 g ai/ha",80
same,"Plant response rating, Guineagrass","[7]; Postemergence, 16 g ai/ha",90
same,"Plant response rating, Guineagrass","[7]; Postemergence, 31 g ai/ha",95
same,"Plant response rating, Guineagrass","[7]; Postemergence, 62 g ai/ha",100
same,"Plant response rating, Itchgrass","[8]; 16 g ai/ha, Preemergence",60
same,"Plant response rating, Itchgrass","[8]; 31 g ai/ha, Preemergence",75
same,"Plant response rating, Itchgrass","[8]; 62 g ai/ha, Preemergence",85
same,"Plant response rating, Itchgrass","[8]; Postemergence, 8 g ai/ha",40
same,"Plant response rating, Itchgrass","[8]; Postemergence, 16 g ai/ha",40
same,"Plant response rating, Itchgrass","[8]; Postemergence, 31 g ai/ha",80
same,"Plant response rating, Itchgrass","[8]; Postemergence, 62 g ai/ha",80
same,"Plant response rating, Johnsongrass","[9]; 16 g ai/ha, Preemergence",75
same,"Plant response rating, Johnsongrass","[9]; 31 g ai/ha, Preemergence",75
same,"Plant response rating, Johnsongrass","[9]; 62 g ai/ha, Preemergence",98
same,"Plant response rating, Johnsongrass","[9]; Postemergence, 8 g ai/ha",60
same,"Plant response rating, Johnsongrass","[9]; Postemergence, 16 g ai/ha",60
same,"Plant response rating, Johnsongrass","[9]; Postemergence, 31 g ai/ha",90
same,"Plant response rating, Johnsongrass","[9]; Postemergence, 62 g ai/ha",98
same,"Plant response rating, Morningglory","[10]; 16 g ai/ha, Preemergence",0
same,"Plant response rating, Morningglory","[10]; 31 g ai/ha, Preemergence",0
same,"Plant response rating, Morningglory","[10]; 62 g ai/ha, Preemergence",0
same,"Plant response rating, Morningglory","[10]; Postemergence, 8 g ai/ha",0
same,"Plant response rating, Morningglory","[10]; Postemergence, 16 g ai/ha",0
same,"Plant response rating, Morningglory","[10]; Postemergence, 31 g ai/ha",0
same,"Plant response rating, Morningglory","[10]; Postemergence, 62 g ai/ha",0
same,"Plant response rating, Nutsedge, Purple","[11]; 16 g ai/ha, Preemergence",0
same,"Plant response rating, Nutsedge, Purple","[11]; 31 g ai/ha, Preemergence",0
same,"Plant response rating, Nutsedge, Purple","[11]; 62 g ai/ha, Preemergence",0
same,"Plant response rating, Nutsedge, Purple","[11]; Postemergence, 8 g ai/ha",0
same,"Plant response rating, Nutsedge, Purple","[11]; Postemergence, 16 g ai/ha",0
same,"Plant response rating, Nutsedge, Purple","[11]; Postemergence, 31 g ai/ha",0
same,"Plant response rating, Nutsedge, Purple","[11]; Postemergence, 62 g ai/ha",0
same,"Plant response rating, Surinam Grass","[12]; 16 g ai/ha, Preemergence",100
same,"Plant response rating, Surinam Grass","[12]; 31 g ai/ha, Preemergence",100
same,"Plant response rating, Surinam Grass","[12]; 62 g ai/ha, Preemergence",100
same,"Plant response rating, Surinam Grass","[12]; Postemergence, 8 g ai/ha",90
same,"Plant response rating, Surinam Grass","[12]; Postemergence, 16 g ai/ha",90
same,"Plant response rating, Surinam Grass","[12]; Postemergence, 31 g ai/ha",100
same,"Plant response rating, Surinam Grass","[12]; Postemergence, 62 g ai/ha",100
